# From US10633386B2, “BET protein degraders” (THE REGENTS OF THE UNIVERSITY OF MICHIGAN, priority 2016, dated 2020)
# What was measured:
# MDA-MB-231 xenograft = experiment: Efficacy of Cpd. No. 9 in MDA-MB-231 xenograft model; assay type: in vivo, SCID mice; conditions: MDA-MB-231 xenograft model in mice, i.v. (FIG. 7)
# Experimental: Cpd. No. 9 was dissolved in 10% PCP [10% PEG400 (Sigma)+3% Cremophor (Sigma)+87% PBS (Gibco)]. The pH of the drug solutions were checked before use and adjusted with 0.5N NaOH to be between pH 6.5 and 8.0 for IV (intravenous) administration.
# Human breast tumor cells, MDA-MB-231 (ATCC®) were maintained at 37° C., 95% air, 5% carbon dioxide in Improved MEM (Richter's Mod.) supplemented with 10% Fetal Bovine Serum, 100 units/ml of penicillin and […] (GIBCO™, Invitrogen Corp.) and passaged twice weekly.
# Tumor cells for xenografts were harvested with Trypsin (0.05%)-EDTA (0.53 mM) (GIBCO™, Invitrogen Corp.), growth medium added and cells placed on ice. Cells were washed once with 1×PBS (GIBCO™, Invitrogen Corp.) and re-suspended in PBS. After washing in PBS, cells were re-suspended in an ice cold mixture of 1:1 PBS and Matrigel (BD Biosciences, Invitrogen Corp.) for a final Matrigel protein concentration of 5 mg/ml. Cells at 5×10^6 cells in 0.1 ml were injected subcutaneously (s.c.) into the flank region of each mouse using a 25 gauge needle. […]
# The size of tumors growing in the mice was measured in two dimensions using calipers. […] During treatment, tumor volume and body weight were measured three times a week. After the treatment was stopped, tumor volume and body weight was measured at least once a week. […]
# TNBC cell lines [1] = experiment: Apoptosis induction in TNBC cell lines; assay type: cell-based; conditions: triple-negative breast cancer (TNBC) cell lines (FIG. 12)
# AML-3 = experiment: Cell growth inhibition (CellTiter-Glo), leukemia line AML-3; assay type: cell-based; conditions: AML3; AML-3 leukemia cell line
# Experimental: (§1) Cell growth inhibitory activity of representative BET bromodomain degraders in representative non-small cell lung cancer cell lines was determined using the CellTiter-Glo® Luminescent Cell Viability Assay. Cells were seeded in 384-well white opaque cell culture plates at a density of 2,000 cells/well with serially diluted compounds and incubated at 37° C. in an atmosphere of 95% air and 5% CO2 for 4 days. Cell viability was determined using the CellTiter-Glo® Luminescent Cell Viability Assay Kit (Promega, Madison, Wis.) according to the manufacture's instruction. Briefly, a volume of CellTiter-Glo® Reagent equal to the volume of cell culture medium was added to each well, and then the plates were incubated at room temperature for 10-20 minutes. The luminescent signal was measured using a Tecan Infinite M1000 multimode microplate reader (Tecan, Morrisville, N.C.). The half maximal inhibitory concentration (IC50) was calculated using the GraphPad Prism 5 software (GraphPad Software, La Jolla, Calif.). Cpd. A is a BET bromodomain inhibitor, see U.S. Appl. No. 62/121,637, having the following structure: Cell growth inhibitory activity of representative BET bromodomain degraders in representative leukemia cell lines, see Table 8, was determined as described in Example 17.
# BET proteins = experiment: PD analysis of BET proteins in WHIM24 tumors; assay type: in vivo, mice; conditions: single IV dose 10 mg/kg
# Experimental: Cpd. […] A at 50 mg/kg, daily, oral dosing, 5 days a week for 3 weeks. Cpd. […] Neither Cpd. A nor Cpd. No. 4 caused significant weight loss (data not shown) or apparent toxicity in this model. […] No. 4 (10 mg/kg) reduced the levels of BET proteins by >80% at as early as 1 h and this effect lasted for at least 9 h in WHIM24 tumors (data not shown). […] No. 4 treatment (data not shown). […] No. 4 is reversible once the drug is cleared from the tumor tissue.
# AML-5 = experiment: Cell growth inhibition (CellTiter-Glo), leukemia line AML-5; assay type: cell-based; conditions: AML-5 leukemia cell line
# Experimental: as §1
# MDA-MB-468 xenograft = experiment: In vivo antitumor activity in MDA-MB-468 xenograft model; parameters: species or system SCID mice
# Experimental: For the in vivo efficacy experiments of this example, when tumors reached 80-200 mm^3, SCID mice were randomized into groups. Cpd. A, Cpd. No. 4, Cpd. No. 6, or vehicle control (10% PEG400: 3% Cremophor: 87% PBS, or 2% TPGS:98% PEG200) was given at the dose and duration indicated. Tumor sizes and animal weights were measured 2-3 times per week. Tumor volume (mm^3)=(length×width^2)/2. Tumor growth inhibition was calculated as TGI (%)=(Vc−Vt)/(Vc−Vo)*100, where Vc, Vt are the median of control and treated groups at the end of the study and Vo at the start. All the in vivo studies were performed under an animal protocol approved by the University Committee on Use and Care of Animals of the University of Michigan, in accordance with the recommendations in the Guide for the Care and Use of Laboratory Animals of the National Institutes of Health.
# No. 4 was determined in xenograft tumor models of TNBC cell lines.
# TNBC cell lines [2] = experiment: Combination apoptosis induction (immunoblotting and/or Annexin-PI staining); assay type: cell-based; conditions: TNBC cell lines (FIGS. 15 and 16; ABT-263 data not shown)
# Experimental: Immunoblotting and/or Annexin-PI staining confirmed that BM-1197 (250 nM), ABT-263 (250 nM), and A-1155463 (250 nM) potentiated Cpd. No. 4-induced apoptosis (50 nM) in MDA-MB-468 (FIG. 14) and other TNBC cell lines (data not shown). Synergistic induction of apoptosis by Cpd. […] No. 4-induced apoptosis in these cell lines. […] A with either BM-1197 (FIGS. 15 and 16) or ABT-263 (data not shown). […] No. 4 and BM-1197 was also detected in additional TNBC cell lines responsive to Cpd. No. 4-induced apoptosis (BT-20 and MDA-MB-157) (data not shown), further supporting that BCL-XL inhibitors potentiate Cpd. No. 4-induced apoptosis in TNBC.
smiles,measurement,setting,value
CCn1nc(C2CC2)cc1Nc1nc(C(=O)NCCCCNc2cccc3c2C(=O)N(C2CCC(=O)NC2=O)C3=O)nc2[nH]c3cc(-c4c(C)noc4C)c(OC)cc3c12 (stereo not shown) [Cpd. No. 9],tumor growth,MDA-MB-231 xenograft,reduces tumor growth
CCn1nc(C2CC2)cc1Nc1nc(C(=O)NCCCOCCOCCOCCCNc2cccc3c2C(=O)N(C2CCC(=O)NC2=O)C3=O)nc2[nH]c3cc(-c4c(C)noc4C)c(OC)cc3c12 (stereo not shown) [Cpd. No. 4],apoptosis induction,TNBC cell lines [1],induces stronger apoptosis than Cpd. A
same,IC50,AML-3,400 nM
same,"time at which protein levels of BRD2, BRD4 and MCL1 started to rebound",BET proteins; WHIM24 tumors,12 h
same,duration of the reduction of BET proteins in WHIM24 tumors,BET proteins,at least 9 h
same,reduction of the levels of BET proteins in WHIM24 tumors,BET proteins; at as early as 1 h (data not shown),> 80%
same,IC50,AML-5,500 nM
same,antitumor activity,"MDA-MB-468 xenograft; MDA-MB-468 model, 10 mg/kg, IV, 3 times per week for 2-3 weeks (FIG. 11)",limited or no antitumor activity
same,tumor growth,MDA-MB-468 xenograft; MDA-MB-468 xenograft model in mice (FIG. 11),reduce tumor growth
"CCn1nc(C2CC2)cc1Nc1nc(COC)nc2[nH]c3cc(-c4c(C)noc4C)c(OC)cc3c12 [Cpd. A, reference compound]",synergism with either BM-1197 or ABT-263,TNBC cell lines [2],No clear synergism
